# From patent publication US12679839B2, “Cyclin-dependent kinase 7 (CDK7) non-covalent inhibitors” (JANSSEN PHARMACEUTICA NV, priority 2020, dated 2026)
# What was measured:
# [1] = target: T1, CDK7/Cyclin H/MAT-1 complex (Homo sapiens, UniProt P50613); experiment: Absorbance kinetic assay (20 nM CDK7/Cyclin H/MAT-1 complex); type: biochemical; conditions: for IC50: read-out: CDK7 (20 nM) pIC50 (converted)
# T1 construct: Human CDK7 (amino acids 1-346); His6 (N); TEV protease cleavage site (N); made in house; host or cells: baculovirus-SF9 insect cells
# Method: Human CDK7 (amino acids 1-346) containing an N-terminal His6-tag followed by a tobacco etch virus (TEV) protease cleavage site, human MAT1 (amino acids 1-309) and human cyclin H (amino acids 1-323) were co-expressed in the baculovirus-SF9 insect cell expression system to generate a trimeric complex. Cell pellets were collected 72 h post-infection and were resuspended by Dounce homogenization in 20 mM Hepes-NaOH (pH 8.0), 300 mM NaCl, 10% glycerol, 2 mM dithiothreitol DTT), and 20 mM Imidazole supplemented with cOmplete™ Protease Inhibitor Cocktail (Roche) and 25 U/mL Benzonase® Nuclease HC according to the manufacturer's instructions. Cells were lysed by passing through a Microfluidics M110Y Microfluidizer 3 times at 600 kPa followed by centrifugation at 38,000×g at 4° C. for 1 hour. The supernatant was loaded onto a pre-equilibrated HisTrap HP column and eluted in 20 mM Hepes-NaOH (pH 8.0), 50 mM NaCl, 10% glycerol, 2 mM DTT, and 400 mM Imidazole. The eluate was further purified by gel filtration on a Superdex S200 16/60 column and eluted with 20 mM Hepes-NaOH (pH 7.5), 50 mM NaCl, 10% Glycerol, 2 mM DTT. Fractions containing a trimeric complex of CDK7, cyclin H, and MAT1 in a 1:1:1 ratio were pooled and concentrated to 3 mg/mL in a 10 kDa MWCO concentrator, and diluted to a final concentration of 1.6 mg/mL in 11.1 mM Hepes-NaOH (pH 8.0), 27.8 mM NaCl, 1.1 mM DTT and 50% glycerol. […]
# Absorbance Kinetic Assay (20 nM CDK7/Cyclin H/MAT-1 Complex)
# CDK7 complex catalyzes the ATP-dependent phosphorylation of a peptide substrate CDK7/9-tide that is derived from RNA Pol II to produce phosphorylated peptide and ADP. The kinase reaction product ADP was converted to lactate and NAD^+ in the presence of phosphoenol pyruvate (PEP), NADH and coupling enzymes lactate dehydrogenase (LDH) and pyruvate kinase (PK). CDK7 complex catalytic activity was measured by following the absorbance intensity continuously at 340 nm that corresponds with the depletion of NADH.
# Absorbance at 340 nm was followed kinetically at an interval of 2 minutes for 8 hours.
# The assay was carried out with 100 μl reaction volume per well in a 384-well plate that was pre-spotted nanoliter volume of compounds by LabCyte Echo 555. Compound dilution plates were made by 2-fold (could vary upon necessity) dilution in DMSO for 11 concentrations plus a DMSO control of uninhibited reaction. 2× substrate and coupling reagent mixture was added to the assay plate followed by an addition of an equal volume of 40 nM CDK7/Cyclin H/MAT-1 complex. After mixing, assay plates were spun at 2000 rpm for 3 minutes and then transferred to the plate reader for data collection.
# For reversible inhibitors, the absorbance reaction progress curves were linear. The steady-state rate was derived from the slope of the linear curves. The following equation is applied to determine percent inhibition.
# [formula] • νo=max rate (uninhibited rate) • νi=inhibited rate
# The IC50 value is calculated by the following equation:
# (§1) [formula] where νo is the rate in the absence of inhibitor, νmin is the rate at highest inhibitor concentration, and h is the Hill coefficient. Flint Assay (5 nM CDK7/Cyclin H/MAT-1 Complex)
# [2] = target: T1, CDK7/Cyclin H/MAT-1 complex; experiment: Flint assay, end-point fluorescence (5 nM CDK7/Cyclin H/MAT-1 complex); type: biochemical; conditions: read-out: CDK7 (5 nM) pIC50 (converted)
# Method: Human CDK7 (amino acids 1-346) containing an N-terminal His6-tag followed by a tobacco etch virus (TEV) protease cleavage site, human MAT1 (amino acids 1-309) and human cyclin H (amino acids 1-323) were co-expressed in the baculovirus-SF9 insect cell expression system to generate a trimeric complex. Cell pellets were collected 72 h post-infection and were resuspended by Dounce homogenization in 20 mM Hepes-NaOH (pH 8.0), 300 mM NaCl, 10% glycerol, 2 mM dithiothreitol DTT), and 20 mM Imidazole supplemented with cOmplete™ Protease Inhibitor Cocktail (Roche) and 25 U/mL Benzonase® Nuclease HC according to the manufacturer's instructions. Cells were lysed by passing through a Microfluidics M110Y Microfluidizer 3 times at 600 kPa followed by centrifugation at 38,000×g at 4° C. for 1 hour. The supernatant was loaded onto a pre-equilibrated HisTrap HP column and eluted in 20 mM Hepes-NaOH (pH 8.0), 50 mM NaCl, 10% glycerol, 2 mM DTT, and 400 mM Imidazole. The eluate was further purified by gel filtration on a Superdex S200 16/60 column and eluted with 20 mM Hepes-NaOH (pH 7.5), 50 mM NaCl, 10% Glycerol, 2 mM DTT. Fractions containing a trimeric complex of CDK7, cyclin H, and MAT1 in a 1:1:1 ratio were pooled and concentrated to 3 mg/mL in a 10 kDa MWCO concentrator, and diluted to a final concentration of 1.6 mg/mL in 11.1 mM Hepes-NaOH (pH 8.0), 27.8 mM NaCl, 1.1 mM DTT and 50% glycerol.
# Compounds with potencies approaching the limit of detection of the assay (IC50≤10 nM) were further assessed in a more sensitive fluorescence end-point assay.
# as §1
# The continuous absorbance assay was converted to an end-point fluorescence assay following the NADH fluorescence signal decrease at the excitation and emission wavelengths of 340 nm and 440 nm, respectively.
# Under the same concentrations of substrates and coupling reagents used in the absorbance assay, the fluorescence assay was performed at a reduced concentration of the CDK7/Cyclin H/MAT-1 complex of 5 nM (final concentration) with a reaction time of 24 hours. The percent of inhibition was calculated by the following equation. Percent of inhibition=(Sample−NC)/(PC−NC)*100 where NC is the mean if negative control (reaction without inhibitor), and PC is the mean of positive control (reaction with complete inhibition).
# Dosing curves were fitted using the following equation to obtain IC50: Y=Bottom+(Top−Bottom)/(1+10^((log IC50−X)*Hill slope)) where X=log10 of the compound concentration; top and bottom can be defined by PC and NC respectively. Imaging-Based Cellular RNA PolII Ser5 Phosphorylation Assay
# [3] = tested on: RNA polymerase II Serine 5 phosphorylation (Rpb1 CTD), downstream substrate of CDK7; experiment: Imaging-based cellular RNA PolII Ser5 phosphorylation assay in A549 cells; type: cell-based, human; conditions: Homo sapiens, A549, 3 h, challenged with compound for 3 hours, read-out: pRNA polII Ser5 (A549) pIC50 (converted)
# In short: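 A549 cells seeded 20 h in DMEM with 1% FBS, then exposed to compound for 3 h at 37 °C; fixed, methanol-permeabilized and immunostained for phospho-Rpb1 CTD Ser5, read by automated imaging. Signal normalized to DMSO (high) and 10 μM LDC4297 (low) controls; IC50 from four-parameter fit of % control vs concentration.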
# T1 sequence (P50613 whole entry, the tested form may be a part): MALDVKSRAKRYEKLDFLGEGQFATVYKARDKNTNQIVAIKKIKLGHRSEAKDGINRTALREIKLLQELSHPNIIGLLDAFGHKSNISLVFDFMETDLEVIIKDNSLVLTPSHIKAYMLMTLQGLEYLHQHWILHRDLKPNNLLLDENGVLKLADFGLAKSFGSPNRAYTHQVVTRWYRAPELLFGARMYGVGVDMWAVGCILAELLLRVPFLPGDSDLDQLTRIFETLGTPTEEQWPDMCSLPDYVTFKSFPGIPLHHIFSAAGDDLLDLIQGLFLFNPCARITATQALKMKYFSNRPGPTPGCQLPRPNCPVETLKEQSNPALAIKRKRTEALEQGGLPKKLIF
# T1 sequence (P51946 whole entry partner, the tested form may be a part): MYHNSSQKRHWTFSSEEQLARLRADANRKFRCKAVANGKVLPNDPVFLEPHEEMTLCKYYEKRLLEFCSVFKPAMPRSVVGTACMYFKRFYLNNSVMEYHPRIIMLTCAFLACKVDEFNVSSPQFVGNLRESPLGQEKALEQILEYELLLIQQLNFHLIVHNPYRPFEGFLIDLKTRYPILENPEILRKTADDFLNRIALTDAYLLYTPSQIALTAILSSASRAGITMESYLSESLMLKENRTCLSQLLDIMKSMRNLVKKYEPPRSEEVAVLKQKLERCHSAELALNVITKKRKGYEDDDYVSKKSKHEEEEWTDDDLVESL
# T1 sequence (P51948 whole entry partner, the tested form may be a part): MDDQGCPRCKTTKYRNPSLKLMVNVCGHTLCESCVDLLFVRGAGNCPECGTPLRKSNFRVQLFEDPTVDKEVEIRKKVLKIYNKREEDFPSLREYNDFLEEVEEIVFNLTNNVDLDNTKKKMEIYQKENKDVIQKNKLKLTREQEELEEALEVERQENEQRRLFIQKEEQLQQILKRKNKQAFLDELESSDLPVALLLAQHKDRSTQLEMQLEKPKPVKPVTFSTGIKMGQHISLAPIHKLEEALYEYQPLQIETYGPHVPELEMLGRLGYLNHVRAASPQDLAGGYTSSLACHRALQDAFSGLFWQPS
Compound,IC50 [1] [nM],IC50 [2] [nM],IC50 [3] [nM],CDK7 (20 nM) pIC50 [1]
C[C@@H]1Cc2cnc(NCc3ccn(C)n3)nc2CN1C(=O)[C@@H]1CCN(C)C[C@H]1c1ccccc1F (relative stereo) [Compound 130],38,7.94,–,–
"CO[C@H]1CC[C@H](Nc2cc3c(cn2)C[C@H](C)N(C(=O)[C@H]2CCN(C)C[C@@H]2c2ccccc2)C3)CC1 (single isomer, unassigned) [Compound 172]",–,7.41,186,–
"[2H]C([2H])([2H])N1CC[C@H](C(=O)N2Cc3nc(NC4CCOCC4)ncc3C[C@H]2C)[C@@H](c2ccccc2)C1 (single isomer, unassigned) [Compound 156]",–,3.24,126,–
C[C@@H]1Cc2cnc(NCc3ccn(C)n3)nc2CN1C(=O)[C@H]1CCN(C)C[C@@H]1c1ccccc1F (relative stereo) [Compound 131],61.7,9.12,–,–
C[C@@H]1Cc2cnc(N[C@H]3CCN(C)C(=O)C3)nc2CN1C(=O)[C@H]1CCN(C)C[C@@H]1c1ccccc1 (relative stereo) [Compound 5],< 9.77,2.14,–,–
"C[C@@H]1Cc2cnc(NC3CCOCC3)nc2CN1C(=O)[C@H]1CCN(C2CC2)C[C@@H]1c1ccccc1 (single isomer, unassigned) [Compound 161]",–,–,> 10000,6.74
C[C@@H]1Cc2cnc(NC[C@H]3CCCO3)nc2CN1C(=O)[C@H]1CCN(C)C[C@@H]1c1ccccc1 [Compound 68],14.5,–,2400,–
CC(C)n1cc(CNc2ncc3c(n2)CN(C(=O)[C@H]2CCN(C)C[C@@H]2c2ccccc2)[C@H](C)C3)cn1 [Compound 30],–,–,3890,7.03
C[C@@H]1Cc2cnc(NC3CCOCC3)nc2CN1C(=O)[C@@H]1CCN(C)C[C@H]1c1ccc(Cl)c(F)c1 [Compound 122a],–,–,> 10000,<5
